Measurements: US20110064794A1, “Drug Delivery System, its Preparation Process and Use” (priority 2008, published 2011)

Legend:
[1] = tested on: human laryngocarcinoma epithelial cells (Hep-2); assay: MTT inhibition of tumor cell growth, Hep-2; format: cell-based; settings: 0.1, 1, 10 and 100 μM in DMSO, different culture times (FIG. 7)
From the text: Microplate Reader (Switzerland Sunrise); 3-(4,5-dimethylthiazol-2-yl)-2, 5-diphenyl-2H-tetrazolium bromide (MTT) (America Fluka); DMSO (Sigma); RPMI 1640 media (GIBCO); fetal bovine serum (FBS) (Tian Jin TBD Center for Biotechnology Development).
Studies were respectively carried out on the inhibition effect of cucurbitacin B HSA nanoparticle on the growth of tumor cells in vitro in human laryngocarcinoma epithelial cells (Hep-2), human hepatoma carcinoma cell (HepG-2), human adenocarcinoma of lung cell (A549), and inhibition effect of the same dosage of cucurbitacin B emulsion and liposomes in these cells were compared.
Cells were cultured in RPMI 1640 media containing 10% FBS in an incubator at 37° C. and 5% CO2, and passaged every 3 to 4 days. […] OD (optical density) value of each well was determined in the microplate reader (at 570 nm wavelength). Cell inhibition rate was calculated according to OD value, and the following formula was used: cell inhibition rate (IR)=[(mean OD value of control group−mean OD value of blank group)−(mean OD value of test groups−mean OD value of blank group)]/(mean OD value of control group−mean OD value of blank group). […]
Inhibition effects of various formulations of CuB (cucurbitacin B/HSA solution, CuB HSA nanoparticle, CuB liposome and CuB emulsion) on Hep-2, A549 and HepG-2 tumor cells were detected.

[2] = tested on: Transplanted liver cancer (H22); assay: anti-tumor test in transplanted liver cancer (H22) model; format: in vivo, nude mice; settings: 20 mg/kg
Description: (§1) Transplanted liver cancer (H22) model in nude mice were established for antitumor drug tests. The nude mice were randomly divided into six groups (10 animals for each group): blank control group, cyclophosphamide positive control group (CTX 20 mg·kg^−1), treatment groups (high, medium and low dosage, 0.20 mg·kg^−1, 0.10 mg·kg^−1 and 0.05 mg·kg^−1) and solution group (non-nanoparticle formulation). The negative control group received injection of physiological saline. After inoculation for four days and with the tumors grown to a certain volume, the mice were treated on the 5th, 7th, 9th, 11th and 13th day. On the 14th day, the mice were sacrificed by cervical dislocation and weighed, dissected to peel off the tumor tissue which was weighed by an electronic balance. The tumor-inhibition rates were calculated by using the following formula: […]
(§2) all the data were expressed as mean±standard deviation (i.e. x±SD); the mice were bled at caudal vein for routine white blood cell count.

white blood cell = assay: routine white blood cell count in H22 model mice; format: in vivo, nude mice; settings: 20 mg·kg^−1
Description: as §1, §2

Structure (SMILES) | inhibition effect on the growth of Hep-2 cells [1] | Body weight (g) begin [2] | Body weight (g) end [2] | Number of mice (begin/end) [2] | Tumor-inhibition rate (%) ([2]; day 14) | Weight of tumor (g) (x ± SD) ([2]; day 14) | leukocyte number (white blood cell)
CC(=O)OC(C)(C)/C=C/C(=O)[C@](C)(O)[C@H]1[C@H](O)C[C@@]2(C)[C@@H]3CC=C4[C@H](C[C@H](O)C(=O)C4(C)C)[C@]3(C)C(=O)C[C@]12C [cucurbitacin B] | enhanced along with the extended time and increased dose | – | – | – | – | – | –
O=P1(N(CCCl)CCCl)NCCCO1 (stereo not shown) [CTX, cyclophosphamide] | – | 19.77 g | 21.08 g | 10/9 | 55.3% | 1.26 ± 0.63 g | 3.11e+09 L⁻¹
